Legend:
[1] = system: Normal Human foreskin fibroblasts (HFF); assay: Methylene Blue Growth Inhibition Assay, HFF; format: cell-based; conditions: 72 h, Cell Line HFF, 3 days, read-out: MeB IC50
Description: (§1) Normal Human foreskin fibroblasts (HFF) and human colon (HCT116, RKO), lung (H460), prostate (PC3), and breast tumor (MCF7) cell lines were cultured in high glucose DMEM (Life Technologies) containing 10% fetal bovine serum (FBS) at 37° C. in a humidified 10% CO2, 90% air incubator. Cells were harvested using trypsin/EDTA, counted using a haemocytometer, and plated in 100 μl of the appropriate media, at the following densities, in a 96-well tissue culture plate (Falcon 3075): HFF 5,000 cells/well, HCT116 3,000 cells/well, RKO 2,500 cells/well, H460 2,000 cells/well, PC3 8,000 cells/well, MCF7 4,000 cells/well. The next day, compounds were diluted in DMEM containing 100 μg/ml gentamicin, at twice the final required concentration, from 10 mM stock solutions in DMSO. 100μ/well of these dilutions were added to the 100 μl of media currently on the cell plates. Medium containing 0.6% DMSO was added to control wells. Compounds diluted in DMEM were added to all cell lines. The final concentration of DMSO in all wells was 0.3%. Cells were incubated at 37° C., 10% CO2 for 3 days. Medium was removed by aspiration. Cell biomass was estimated by staining cells with […] per well methylene blue (Sigma M9140, 0.5% in 50:50 ethanol:water), and incubation at room temperature for at least 30 minutes. Stain was removed, and the plates rinsed under a gentle stream of water, and air-dried. To release stain from the cells 100 μl of solubilization solution was added (1% N-lauroyl sarcosine, Sodium salt, Sigma L5125, in PBS), and plates were shaken gently for about 30 minutes. Optical density at 620 nm was measured on a microplate reader. Percent inhibition of cell growth was calculated relative to vehicle treated control wells. Concentration of compound that inhibits 50% of cell growth (IC50) was interpolated using nonlinear regression (Levenberg-Marquardt) and the equation, y=Vmax*(1-(x/(K+x)))+Y2, where “K” was equal to the IC50. In Table 1, +=10−>30 uM; ++=1−10 uM: +++=<1 uM.

[2] = system: colon (HCT116) tumor cell line; assay: Methylene Blue Growth Inhibition Assay, HCT116; format: cell-based; conditions: Homo sapiens, HCT-116, 72 h; Cell Line HCT116, 3 days; read-out: MeB IC50
Description: as §1

[3] = system: prostate (PC3) tumor cell line; assay: Methylene Blue Growth Inhibition Assay, PC3; format: cell-based; conditions: Homo sapiens, 72 h; Cell Line PC3, 3 days; read-out: MeB IC50
Description: as §1

[4] = system: lung (H460) tumor cell line; assay: Methylene Blue Growth Inhibition Assay, H460; format: cell-based; conditions: Homo sapiens, NCI-H460, 72 h; Cell Line H460, 3 days; read-out: MeB IC50
Description: as §1

PLK1 kinase domain = biological target: T1, PLK1 kinase domain (Homo sapiens, UniProt P53350); assay: Assay for Inhibition of PLK1 (SPA enzyme activity); format: biochemical; conditions: 2 μM ATP, read-out: Ave pIC50 PLK Enzyme Inhibition (converted)
T1 construct: made in house; host or cells: baculovirus-infected T. ni insect cells
T1 sequence (P53350 21-346): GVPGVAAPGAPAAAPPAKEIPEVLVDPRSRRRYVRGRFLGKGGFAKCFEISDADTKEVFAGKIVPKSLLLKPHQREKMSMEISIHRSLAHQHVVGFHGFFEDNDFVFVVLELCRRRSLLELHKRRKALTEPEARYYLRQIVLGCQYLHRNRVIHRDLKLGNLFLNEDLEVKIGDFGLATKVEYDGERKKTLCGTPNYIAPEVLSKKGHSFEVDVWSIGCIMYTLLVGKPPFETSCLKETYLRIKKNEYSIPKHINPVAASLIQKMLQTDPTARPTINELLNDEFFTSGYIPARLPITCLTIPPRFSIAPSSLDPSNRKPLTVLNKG
Description: All procedures were performed at 4° C. Cells were lysed in so mM HEPES, 200 mM NaCl, so mM imidazole, 5% glycerol; pH 7.5. The homogenate was centrifuged at 14K rpm in a SLA-1500 rotor for 1 hr and the supernatant filtered through a 1.2 micron filter. The supernatant was loaded onto a Nickel chelating Sepharose (Amersham Pharmacia) column and washed with lysis buffer. Protein was eluted using 20%, 30% and 100% buffer B steps where buffer B is 50 mM HEPES, 200 mM NaCl, 300 mM imidazole, 5% glycerol; pH 7.5. Fractions containing PLK were determined by SDS-PAGE. Fractions containing PLK were diluted five-fold with so mM HEPES, 1 mM DTT, 5% glycerol; pH 7.5, then loaded on an SP Sepharose (Amersham Pharmacia) column. After washing the column with so mM HEPES, 1 mM DTT, 5% glycerol; pH 7.5, PLK was step eluted with so mM HEPES, 1 mM DTT, 500 mM NaCl; 5% glycerol; pH 7.5. PLK was concentrated using a 10 kDa molecular weight cutoff membrane and then loaded onto a Superdex 200 gel filtration (Amersham Pharmacia) column equilibrated in 25 mM HEPES, 1 mM DTT, 500 mM NaCl, 5% glycerol; pH 7.5. Fractions containing PLK were determined by SDS-PAGE. PLK was pooled, aliquoted and stored at −80° C. Samples were quality controlled using mass spectrometry, N-terminal sequencing and amino acid analysis.
B. Enzyme activity+/−inhibitors was determined as follows:
Compounds were added to the plate (1 μl in […]). […] Reaction Mix B is prepared as follows at 4° C.: • Reaction Mix B (Enzyme Mix) • 25 mM HEPES, pH 7.2 • 15 mM MgCl2 • 0.15 mg/ml BSA • 2 mM DTT • 2-10 nM PLK1 kinase domain
Reaction Mix A (20 μl) is added per well. Reaction Mix B (20 μl) is added per well. Incubate 1.5 hrs. at RT. The enzymatic reaction is stopped with 175 μl of SPA/EDTA bead mix (29 mM EDTA, 2.5 mg/ml Streptavidin-coated SPA in Standard Dulbecco's PBS (without Mg^2+ and Ca^2+), 60 μM ATP). Plates are sealed spun (after a 1 hr incubation at RT) at 1,000×g for 7 min or settled overnight, then plates counted in Packard TopCount for 30 seconds/well.

[5] = system: breast tumor (MCF7) cell line; assay: Methylene Blue Growth Inhibition Assay, MCF7; format: cell-based; conditions: Homo sapiens, 72 h; Cell Line MCF7, 3 days; read-out: MeB IC50
Description: as §1

[6] = system: colon (RKO) tumor cell line; assay: Methylene Blue Growth Inhibition Assay, RKO; format: cell-based; conditions: Homo sapiens, 72 h, 3 days, read-out: MeB IC50
Description: as §1

Row | Compound | IC50 [1] | IC50 [2] | IC50 [3] | IC50 [4] | IC50 (PLK1 kinase domain) | IC50 [5] | IC50 [6]
1 | COc1cc2ncn(-c3cc(OCc4c(Cl)cccc4Cl)c(C(N)=O)s3)c2cc1OC [Example 64, 3-[(2,6-Dichlorobenzyl)oxy]-5-(5,6-dimethoxy-1H-benzimidazol-1-yl)thiophene-2-carboxamide] | > 10 µM | 1 to 10 µM | > 10 µM | < 1 µM | < 0.1 µM | 1 to 10 µM | 1 to 10 µM
2 | COc1cc2ncn(-c3cc(OCc4ccccc4Br)c(C(N)=O)s3)c2cc1OC [Example 65, 3-[(2-Bromobenzyl)oxy]-5-(5,6-dimethoxy-1H-benzimidazol-1-yl)thiophene-2-carboxamide] | > 10 µM | < 1 µM | > 10 µM | < 1 µM | < 0.1 µM | < 1 µM | < 1 µM
3 | Cc1ccccc1COc1cc(-n2cnc3cc(Cl)c(Cl)cc32)sc1C(=O)O [Example 66, 5-(5,6-Dichloro-1H-benzimidazol-1-yl)-3-[(2-methylbenzyl)oxy]-thiophene-2-carboxylic acid] | > 10 µM | > 10 µM | > 10 µM | > 10 µM | < 0.1 µM | > 10 µM | > 10 µM
4 | O=C(O)c1sc(-n2cnc3ccc(Cl)cc32)cc1OCc1ccc(F)cc1Cl [Example 70, 5-(6-Chloro-1H-benzimidazol-1-yl)-3-[(2-Chloro-4-fluorobenzyl)oxy]-thiophene-2-carboxylic acid] | > 10 µM | > 10 µM | > 10 µM | > 10 µM | < 0.1 µM | > 10 µM | > 10 µM
5 | O=C(O)c1sc(-n2cnc3ccc(Cl)cc32)cc1OCc1ccc(F)cc1F [Example 71, 5-(6-Chloro-1H-benzimidazol-1-yl)-3-[(2,4-difluorobenzyl)oxy]-thiophene-2-carboxylic acid] | > 10 µM | > 10 µM | > 10 µM | > 10 µM | < 0.1 µM | > 10 µM | > 10 µM
6 | O=C(O)c1sc(-n2cnc3ccc(Cl)cc32)cc1OCc1cccnc1 [Example 72, 5-(6-Chloro-1H-benzimidazol-1-yl)-3-(pyridin-3-ylmethoxy)thiophene-2-carboxylic acid] | > 10 µM | > 10 µM | > 10 µM | > 10 µM | < 0.1 µM | > 10 µM | > 10 µM
7 | O=C(O)c1sc(-n2cnc3ccc(Br)cc32)cc1OCc1ccccc1C(F)(F)F [Example 74, 5-(6-Bromo-1H-benzimidazol-1-yl)-3-{[2-(trifluoromethyl)-benzyl]oxy}thiophene-2-carboxylic acid] | > 10 µM | > 10 µM | > 10 µM | 1 to 10 µM | < 0.1 µM | > 10 µM | > 10 µM
8 | COc1cc2ncn(-c3cc(OCc4ccccc4Br)c(C(=O)O)s3)c2cc1OC [Example 76, 3-[(2-Bromobenzyl)oxy]-5-(5,6-dimethoxy-1H-benzimidazol-1-yl)thiophene-2-carboxylic acid] | > 10 µM | > 10 µM | > 10 µM | > 10 µM | < 0.1 µM | > 10 µM | > 10 µM
9 | O=C(O)c1sc(-n2cnc3cc(Cl)c(Cl)cc32)cc1OCc1ccoc1 [Example 77, 5-(5,6-Dichloro-1H-benzimidazol-1-yl)-3-(3-furylmethoxy)thiophene-2-carboxylic acid] | > 10 µM | > 10 µM | > 10 µM | > 10 µM | < 0.1 µM | > 10 µM | > 10 µM
10 | O=C(O)c1sc(-n2cnc3cc(Cl)c(Cl)cc32)cc1OCc1ccco1 [Example 78, 5-(5,6-Dichloro-1H-benzimidazol-1-yl)-3-(2-furylmethoxy)thiophene-2-carboxylic acid] | > 10 µM | > 10 µM | > 10 µM | > 10 µM | < 0.1 µM | > 10 µM | > 10 µM
11 | O=C(O)c1sc(-n2cnc3cc(Cl)c(Cl)cc32)cc1OCc1ccsc1 [Example 79] | > 10 µM | > 10 µM | > 10 µM | > 10 µM | < 0.1 µM | > 10 µM | > 10 µM
12 | O=C(O)c1sc(-n2cnc3cc(Cl)c(Cl)cc32)cc1OCc1cccs1 [Example 80, 5-(5,6-Dichloro-1H-benzimidazol-1-yl)-3-(thien-2-ylmethoxy)-thiophene-2-carboxylic acid] | > 10 µM | > 10 µM | > 10 µM | > 10 µM | < 0.1 µM | > 10 µM | > 10 µM
13 | NC(=O)c1sc(-n2cnc3ccc(OCC(F)(F)F)cc32)cc1OCc1ccccc1C(F)(F)F [Example 87, 5-[6-(2,2,2-Trifluoroethoxy)-1H-benzimidazol-1-yl]-3-{[2-(trifluoromethyl)benzyl]oxy}thiophene-2-carboxamide] | > 10 µM | 1 to 10 µM | > 10 µM | 1 to 10 µM | < 0.1 µM | 1 to 10 µM | 1 to 10 µM
14 | NC(=O)c1sc(-n2cnc3cc4c(cc32)OC(F)(F)O4)cc1OCc1ccccc1C(F)(F)F [Example 88, 5-(2,2-Difluoro-5H-[1,3]dioxolo[4,5-f]benzimidazol-5-yl)-3-{[2-(trifluoromethyl)benzyl]oxy}thiophene-2-carboxamide] | > 10 µM | > 10 µM | > 10 µM | > 10 µM | 0.1 to 10 µM | 1 to 10 µM | > 10 µM
15 | NC(=O)c1sc(-n2cnc3cc4c(cc32)OCCCO4)cc1OCc1ccccc1C(F)(F)F [Example 89] | > 10 µM | 1 to 10 µM | > 10 µM | 1 to 10 µM | < 0.1 µM | 1 to 10 µM | 1 to 10 µM
16 | COc1cc2ncn(-c3cc(OCc4cccc(N(C)C)c4)c(C(N)=O)s3)c2cc1OC [Example 90, 5-(5,6-Dimethoxy-1H-benzimidazol-1-yl)-3-{[3-(dimethylamino)benzyl]oxy}thiophene-2-carboxamide] | > 10 µM | 1 to 10 µM | > 10 µM | 1 to 10 µM | < 0.1 µM | 1 to 10 µM | 1 to 10 µM
